Patent US7910751B2, “Heterocyclidene acetamide derivative” (Mochida Pharmaceutical Co., Ltd., priority 2005, dated 2011)

Biological target: T1, human TRPV1 (Homo sapiens, UniProt Q8NER1)
T1 construct: expressed in transfected cells; host or cells: CHO-K1
Assay: Measurement of capsaicin-induced Ca influx in human TRPV1 transformed CHO cell line using FDSS-6000
Format: cell-based
Details: concentration at which the capsaicin concentration-reaction curve is shifted two times to the right, human TRPV1 transformed CHO cells
Description: [Measurement of Capsaicin-Induced Ca Influx in Human TRPV1 Transformed CHO Cell Line]
(1) Establishment of Human TRPV1 Transformed CHO Cell Line
Human vanilloid receptor 1 (hTRPV1) cDNA was cloned from a human brain. The cloned hTRPV1 cDNA was incorporated in a pCAGGS vector. The gene of the vector was introduced to a CHO-K1 cell line, thus performing transformation. Clones obtained by limiting dilution were stimulated with capsaicin. Clones with a high responsiveness were selected using an increase in the Ca concentration as an indicator. The selected clones were used for the following experiment.
(2) Measurement of Ca Influx Using FDSS-6000
The human TRPV1 transformed CHO cells were seeded in a 96-well plate (with black walls and transparent bottoms, manufactured by Greiner) at a density of 40,000 cells per well. The cells were cultured at 37° C. in 5% CO2 for one night. A loading solution of FLIPR Calcium 3 assay kit (manufactured by Molecular Devices Corporation) containing 2.5 mmol/L of probenecid was then added to each of the wells in the same amount as the culture medium, and the cells were cultured at 37° C. for 60 minutes. After the cells were stimulated with capsaicin (1 nmol/L to 1 μmol/L), the change in the Ca concentration in the cells was measured using FDSS-6000 (λex: 480 nm, λem: 540 nm, manufactured by Hamamatsu Photonics K.K.) for three minutes. The integrated values of the increase rate of the Ca concentration in the cells were calculated for a group treated with the compounds of the present invention and a group treated with a medium, thus allowing capsaicin concentration-reaction curves to be obtained. A concentration (A2 value) of each of the compounds of the present invention, at which the capsaicin concentration-reaction curve obtained when the cells were treated with the medium was shifted two times to the right side, was calculated. The inhibiting effects of the test compounds were compared using this value as an indicator.
In the case where a compound of the present invention is an agonist, when the cells are treated with the compound of the present invention prior to the capsaicin stimulation, the Ca influx is observed. In Table 1, compounds of the present invention having an A2 value of less than 100 nM are represented by A, and compounds having an A2 value of 100 nM or more are represented by B. When the A2 values of the compounds of the present invention were measured by the above-described method, the compounds have an intensity of 1 μM or less.

T1 sequence (Q8NER1 whole entry): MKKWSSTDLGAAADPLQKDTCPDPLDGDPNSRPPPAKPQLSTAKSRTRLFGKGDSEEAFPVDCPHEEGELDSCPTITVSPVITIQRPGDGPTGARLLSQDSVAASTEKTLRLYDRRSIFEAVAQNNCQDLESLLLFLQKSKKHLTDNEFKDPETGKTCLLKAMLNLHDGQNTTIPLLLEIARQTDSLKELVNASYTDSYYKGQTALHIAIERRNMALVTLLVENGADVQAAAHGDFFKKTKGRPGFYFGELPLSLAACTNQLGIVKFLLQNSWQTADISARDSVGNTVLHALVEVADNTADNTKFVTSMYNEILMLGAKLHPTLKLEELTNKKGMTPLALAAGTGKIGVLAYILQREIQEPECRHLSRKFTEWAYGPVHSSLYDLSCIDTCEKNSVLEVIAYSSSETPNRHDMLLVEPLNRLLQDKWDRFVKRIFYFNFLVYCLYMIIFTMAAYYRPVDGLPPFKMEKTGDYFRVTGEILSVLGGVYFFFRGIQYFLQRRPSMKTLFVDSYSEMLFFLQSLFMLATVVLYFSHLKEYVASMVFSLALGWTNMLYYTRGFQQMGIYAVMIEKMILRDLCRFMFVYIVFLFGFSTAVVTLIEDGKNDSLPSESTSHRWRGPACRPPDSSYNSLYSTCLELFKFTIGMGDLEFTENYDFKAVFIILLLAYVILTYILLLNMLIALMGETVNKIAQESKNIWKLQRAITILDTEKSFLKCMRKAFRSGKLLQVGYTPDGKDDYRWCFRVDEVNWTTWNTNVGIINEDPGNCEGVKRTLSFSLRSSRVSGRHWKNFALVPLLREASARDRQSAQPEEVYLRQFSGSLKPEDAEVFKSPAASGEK

In the case of O=C(C=C1COCc2cc(C(F)(F)F)ccc21)Nc1cccc2c1CC(O)CC2 (stereo in doubt) [Example 237, (E)-2-(7-trifluoromethyl-isochroman-4-ylidene)-N-(7-hydroxy-5,6,7,8-tetrahydronaphthalen-1-yl)acetamide], the “A2 VALUE” is reported as “A (compounds of the present invention having an A2 value of less than 100 nM are represented by A)”.
O=C(/C=C1\CCOc2ccccc21)Nc1ccc2c(c1)OCCO2 [Example 1, (E)-2-(chroman-4-ylidene)-N-(2,3-dihydrobenzo[b][1,4]dioxin-6-yl)acetamide] was tested, and the “A2 VALUE” was “B (compounds having an A2 value of 100 nM or more are represented by B)”.
In the case of O=C(/C=C1\CCOc2ccccc21)Nc1cccc2cnccc12 [Example 2, (E)-2-(chroman-4-ylidene)-N-(isoquinolin-5-yl)acetamide], the “A2 VALUE” is reported as “B (compounds having an A2 value of 100 nM or more are represented by B)”.
CC(C)(C)c1ccc2c(c1)OCC/C2=C\C(=O)NC1CCc2cccnc2C1 (stereo not drawn) [Example 3, (E)-2-(7-tert-butyl-chroman-4-ylidene)-N-(5,6,7,8-tetrahydroquinolin-7-yl)acetamide] was tested, and the “A2 VALUE” was “A (compounds of the present invention having an A2 value of less than 100 nM are represented by A)”.
CC(C)(C)c1ccc2c(c1)OCC/C2=C\C(=O)Nc1cccc2cnccc12 [Example 4, (E)-2-(7-tert-butyl-chroman-4-ylidene)-N-(isoquinolin-5-yl)acetamide] was tested, and the “A2 VALUE” was “A (compounds of the present invention having an A2 value of less than 100 nM are represented by A)”.
In the case of CC(C)(C)c1ccc2c(c1)OCC/C2=C\C(=O)Nc1ccc2cccnc2c1 [Example 5, (E)-2-(7-tert-butyl-chroman-4-ylidene)-N-(quinolin-7-yl)acetamide], the “A2 VALUE” is reported as “A (compounds of the present invention having an A2 value of less than 100 nM are represented by A)”.
For O=C(/C=C1\CCOc2cc(C(F)(F)F)ccc21)NC1CCc2cccnc2C1 (stereo not drawn) [Example 6, (E)-2-(7-trifluoromethyl-chroman-4-ylidene)-N-(5,6,7,8-tetrahydroquinolin-7-yl)acetamide], the “A2 VALUE” was “A (compounds of the present invention having an A2 value of less than 100 nM are represented by A)”.
With O=C(/C=C1\CCOc2cc(C(F)(F)F)ccc21)Nc1cccc2cnccc12 [Example 7, (E)-2-(7-trifluoromethyl-chroman-4-ylidene)-N-(isoquinolin-5-yl)acetamide] the “A2 VALUE” was “A (compounds of the present invention having an A2 value of less than 100 nM are represented by A)”.
O=C(/C=C1\CCOc2cc(C(F)(F)F)ccc21)Nc1ccc2cccnc2c1 [Example 8, (E)-2-(7-trifluoromethyl-chroman-4-ylidene)-N-(quinolin-7-yl)acetamide] was tested, and the “A2 VALUE” was “A (compounds of the present invention having an A2 value of less than 100 nM are represented by A)”.
O=C(/C=C1\CCCOc2cc(C(F)(F)F)ccc21)Nc1ccc2c(c1)OCCO2 [Example 9, (E)-2-(8-trifluoromethyl-3,4-dihydrobenzo[b]oxepin-5(2H)-ylidene)-N-(2,3-dihydrobenzo[b][1,4]dioxin-6-yl)acetamide] was tested, and the “A2 VALUE” was “A (compounds of the present invention having an A2 value of less than 100 nM are represented by A)”.
With O=C(/C=C1\CCCOc2cc(C(F)(F)F)ccc21)NC1CCc2cccnc2C1 (stereo not drawn) [Example 10, (E)-2-(8-trifluoromethyl-3,4-dihydrobenzo[b]oxepin-5(2H)-ylidene)-N-(5,6,7,8-tetrahydroquinolin-7-yl)acetamide] the “A2 VALUE” was “A (compounds of the present invention having an A2 value of less than 100 nM are represented by A)”.
For O=C(/C=C1\CCCOc2cc(C(F)(F)F)ccc21)Nc1cccc2cnccc12 [Example 11, (E)-2-(8-trifluoromethyl-3,4-dihydrobenzo[b]oxepin-5(2H)-ylidene)-N-(isoquinolin-5-yl)acetamide], the “A2 VALUE” was “A (compounds of the present invention having an A2 value of less than 100 nM are represented by A)”.
